Data set [1] relates to HIV-1 clone NL4.3 (subtype B). Description: HIV-1 NL4.3 (subtype B) infection of human PBMCs, Cell Titer Blue readout. Type of data set: cell-based. The protocol:
Human PMBCs were incubated with 100 U recombinant IL-2 (Sigma-Aldrich) and 5 µg/mL phytohemagglutinin-P (PHA-P) (Difco) for 5 days at 37°C. MT-4 cells (1×10^6) or treated PBMCs (1.2×10^8) were infected with HIV-1 clone NL-4.3 or ZM247Fv-1 (MOI of 0.001) by spinoculation (1200 g at room temperature for 2 h). Uninfected cells were used as negative control and were also subjected to the spinoculation process. After spinoculation, supernatants were discarded and cells were resuspended in 10 mL of R10. Cells from each condition were then added to wells (96-well plate) containing serial dilutions of each ISD. For MT-4 cells, each dilution was done in sextuplicates and, for PBMCs, in triplicates. Cells were also incubated with different concentrations of ZDV as positive control. After 5 days in culture, Cell Titer Blue was added to each well and cells were incubated for additional 24 h. The median effective concentration for each drug is defined as EC50. In parallel with the infectivity assay, the same cell types were treated with different concentrations of drugs to determine their cytotoxicity, following the protocol described above. Drug concentration that results in a 50% decrease in viable cells is defined as the CC50 for each compound. EC50 was calculated according to Spearman-Karber and therapeutic index was defined by the ratio between CC50 and EC50 [55].
All statistical analyses were performed using program GraphPism version 6.0. Titrations for TCID50 infectivity were calculated by the Spearman-Karber method. Dose response curves to ISDs with HIV-1 subtype B and C were done using non-linear regression and were fit to the Hill equation.

In data set [2] the test system is CD4, CXCR4, CCR5 on CD4+ T lymphocytes. The experiment in a line: Surface CD4, CXCR4, CCR5 expression in CD4+ T lymphocytes (cytometry). The class given is cell-based, human. The settings on record: cells from three donors, different concentrations, 24 h. The protocol: For analysis of cell surface marker expression, MT-4 cells and bead-selected CD4+ T cells (described above) were incubated with 1 µM of each compound (ING-A, ING-B, ING-C, prostratin, PMA, and bryostatin-1) at 37°C for 48 h. After incubation, cells were washed with PBS and incubated for 20 min at room temperature with antibodies against CD3-Brilliant Violet 510 (clone OKT3 – Biolegend), CD4-Qdot 655 (clone 53.5 - Life Technologies), CXCR4-PE (clone 1265 - BD Biosciences), CCR5-PerCP-Cy5.5 (clone 3A9 - BD Biosciences), CD69-Pacific Blue (clone FN50 – BD Biosciences), CD38-FITC (clone AT-1 – Stem Cell Technologies), CD25-APC (clone 2A3 – BD Biosciences), HLA-DR-Qdot 605 (clone TÜ36 – Life Technologies) and a marker for annexin V-FITC (Life Technologies). Cells (both MT-4 cells and CD4+ T cells) were initially incubated for 2 h with different PKC inhibitors (GÖ6983, GÖ6976 or RO-31-8220). Then, ING-B, prostratin or PMA at 1 µM or TNF-α at 10 ng/mL were added to each condition and incubation was carried out for 24 h at 37°C. Similar protocol was used for the analysis of PKC inhibitors in J-Lat clones 9.2 and 10.6. GFP expression, surface marker expression and activation marker were evaluated on a LSR Fortessa cytometer (BD Biosciences). Data analysis was performed using FlowJo software (Tree Star).

Take `CCCCCC(=O)O[C@H]1C(C)=C[C@]23C(=O)[C@@H](C=C(CO)[C@@H](O)[C@]12O)[C@H]1[C@@H](C[C@H]3C)C1(C)C` [ING-B, ingenol-3-hexanoate]: the “TI (CC50/EC50)” value in data set [1] (Human PBMC, Subtype B (X4)) was determined as 714.3. Also, the concentration for a half-maximal effect (EC50) in data set [1] (Human immunodeficiency virus 1, PBMC) was 56 nM. Besides, the “downregulation of CD4, CCR5 and CXCR4, dose dependence” value in data set [2] is recorded as “dose dependent”.
